Measured values taken from patent US20250099557A1, “ANTIBIOTIC PHARMACEUTICAL COMPOSITION CAPABLE OF SUBCUTANEOUS ADMINISTRATION” (SHANGHAI BAO PHARMACEUTICALS CO., LTD., priority 2021, published 2025).

Key:
HAase = target: T1, HAase (Homo sapiens, UniProt P38567); assay: Compatibility study of HAase and antibiotic in solution: HAase activity; assay type: biochemical; conditions: 15 min room temperature; for Final concentration of HAase (units/ml) 150: HAase added to 150 units/ml; for Final concentration of HAase (units/ml) 500: HAase added to 500 units/ml; for Final concentration of HAase (units/ml) 2000: HAase added to 2000 units/ml; for Final concentration of HAase (units/ml) 6000: HAase added to 6000 units/ml; for interference with the activity of HAase: antibiotic and HAase in physiological saline
T1 construct: made in house
T1 sequence (P38567 36-482): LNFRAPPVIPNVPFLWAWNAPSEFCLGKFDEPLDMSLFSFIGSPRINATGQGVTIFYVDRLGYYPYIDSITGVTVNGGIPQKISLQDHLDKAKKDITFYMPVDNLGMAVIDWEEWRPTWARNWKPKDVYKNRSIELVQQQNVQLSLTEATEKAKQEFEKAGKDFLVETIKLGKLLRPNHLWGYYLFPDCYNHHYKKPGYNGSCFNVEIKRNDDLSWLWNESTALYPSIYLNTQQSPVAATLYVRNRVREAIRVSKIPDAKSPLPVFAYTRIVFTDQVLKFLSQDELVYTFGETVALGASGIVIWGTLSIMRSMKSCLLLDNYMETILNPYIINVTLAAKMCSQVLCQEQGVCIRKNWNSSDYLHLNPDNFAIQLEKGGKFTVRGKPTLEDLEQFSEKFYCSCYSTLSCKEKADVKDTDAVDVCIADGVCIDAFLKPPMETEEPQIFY
Procedure: “HAase activity refers to the ability of HAase to catalytically cleave hyaluronic acid. The Chinese Pharmacopoeia provides a method for determining the HAase activity, indirectly by measuring the amount of remaining higher-molecular-weight hyaluronic acid substrate after the enzyme is allowed to catalytically cleave hyaluronic acid at 37° C. for 30 min. A standard reference solution can be used in the assay to determine the relative activity (in units) of any HAase. In-vitro assays for the determination of HAase are known in the art. Exemplary assays include micro-turbidimetric assay described below, which indirectly measures the cleavage of hyaluronic acid by HAase by detecting an insoluble precipitate formed when uncleaved hyaluronic acid binds to serum albumin. The reference standard can be used, for example, to generate a standard curve, so as to determine the activity of the tested HAase in units.
The compatibility of HAase and an antibiotic was studied by preparing a solution comprising the two substances. A dry Meropenem power for injection was dissolved in physiological saline to give a concentration of 5 mg/ml and 50 mg/ml, and then HAase was added to give a final concentration of 150, 500, 2000, and 6000 units/ml respectively. After preparation, the solution was left to stand at room temperature for 15 min. The appearance of the solution was observed, and the concentration of HAase was determined.
The compatibility of HAase and an antibiotic was studied by preparing a solution comprising the two substances. A dry Ceftriaxone sodium power for injection was dissolved in physiological saline to give a concentration of 50 mg/ml and 250 mg/ml, and then HAase was added to give a final concentration of 150, 500, 2000, and 6000 units/ml respectively. After preparation, the solution was left to stand at room temperature for 15 min. The appearance of the solution was observed, and the concentration of HAase was determined.
The compatibility of HAase and an antibiotic was studied by preparing a solution comprising the two substances. A dry Azithromycin power for injection was dissolved in physiological saline to give a concentration of 10 mg/ml and 100 mg/ml, and then HAase was added to give a final concentration of 150, 500, 2000, and 6000 units/ml respectively. After preparation, the solution was left to stand at room temperature for 15 min. The appearance of the solution was observed, and the concentration of HAase was determined.
The compatibility of HAase and an antibiotic was studied by preparing a solution comprising the two substances. A dry Cefradine powder for injection was dissolved in physiological saline to give a concentration of 50 mg/ml and 250 mg/ml, and then HAase was added to give a final concentration of 150, 500, 2000, and 6000 units/ml respectively. After preparation, the solution was left to stand at room temperature for 15 min. The appearance of the solution was observed, and the concentration of HAase was determined.
The compatibility of HAase and an antibiotic was studied by preparing a solution comprising the two substances. A dry Teicoplanin powder for injection was dissolved in physiological saline to give a concentration of 10 mg/ml and 70 mg/ml, and then HAase was added to give a final concentration of 150, 500, 2000, and 6000 units/ml respectively. After preparation, the solution was left to stand at room temperature for 15 min. The appearance of the solution was observed, and the concentration of HAase was determined.
The compatibility of HAase and an antibiotic was studied by preparing a solution comprising the two substances. A dry Ceftazidime powder for injection was dissolved in physiological saline to give a concentration of 20 mg/ml and 200 mg/ml, and then HAase was added to give a final concentration of 150, 500, 2000, and 6000 units/ml respectively. After preparation, the solution was left to stand at room temperature for 15 min.

[1] = Pharmacokinetics of model antibiotics in mice: tail vein injection vs subcutaneous administration combined with recombinant human HAase; conditions: ICR male mice, single dose 100-200 mg/kg
[2] = antibiotic 50 mg/ml in physiological saline
[3] = antibiotic 250 mg/ml in physiological saline
[4] = administration by injection via tail vein
[5] = conventional subcutaneous administration
[6] = in combination with recombinant human HAase for subcutaneous administration
[7] = antibiotic 10 mg/ml in physiological saline
[8] = antibiotic 70 mg/ml in physiological saline

CC1=C(C(=O)O)N2C(=O)[C@@H](NC(=O)[C@H](N)C3=CCC=CC3)[C@H]2SC1 [Cefradine]
Final concentration of HAase (units/ml) 150 (HAase; [2]): 162 units/ml | Final concentration of HAase (units/ml) 500 (HAase; [2]): 492 units/ml | Final concentration of HAase (units/ml) 2000 (HAase; [2]): 2009 units/ml | Final concentration of HAase (units/ml) 6000 (HAase; [2]): 6126 units/ml | Final concentration of HAase (units/ml) 150 (HAase; [3]): 161 units/ml | Final concentration of HAase (units/ml) 500 (HAase; [3]): 482 units/ml | Final concentration of HAase (units/ml) 2000 (HAase; [3]): 2080 units/ml | Final concentration of HAase (units/ml) 6000 (HAase; [3]): 5797 units/ml | interference with the activity of HAase (HAase): does not interfere with the activity of HAase

Teicoplanin
AUClast [1, 4]: 195 mg·h/L | Cmax [1, 4]: 148 mg/L | Tmax [1, 4]: 5 min | AUClast [1, 5]: 201 mg·h/L | Cmax [1, 5]: 121 mg/L | Tmax [1, 5]: 15 min | AUClast [1, 6]: 210 mg·h/L | Cmax [1, 6]: 133 mg/L | Tmax [1, 6]: 15 min | Final concentration of HAase (units/ml) 150 (HAase; [7]): 160 units/ml | Final concentration of HAase (units/ml) 500 (HAase; [7]): 488 units/ml | Final concentration of HAase (units/ml) 2000 (HAase; [7]): 1972 units/ml | Final concentration of HAase (units/ml) 6000 (HAase; [7]): 6033 units/ml | Final concentration of HAase (units/ml) 150 (HAase; [8]): 152 units/ml | Final concentration of HAase (units/ml) 500 (HAase; [8]): 498 units/ml | Final concentration of HAase (units/ml) 2000 (HAase; [8]): 1961 units/ml | Final concentration of HAase (units/ml) 6000 (HAase; [8]): 5979 units/ml | interference with the activity of HAase (HAase): does not interfere with the activity of HAase
